Results taken from patent US12479877B2, “Methods for purifying steviol glycosides and uses of the same” (PureCircle Sdn. Bhd., priority 2010, dated 2025).
“Also recorded” adds a separate entry of the source.

Tests used:
Format in all cases: in vivo, human
[1] = test system: panelists; assay: Sensory properties in acidified water (pH 3.0) at 500 mg/L, 20 panelists; conditions: 500 ppm, acidified water pH 3.0, 20 panelists
Description: The sensory properties of Reb X were evaluated in acidified water (pH 3.0 by phosphoric acid) at 500 mg/L concentration by 20 panelists.

[2] = test system: one experienced panelist; assay: Taste evaluation of Reb X against Reb A and Reb D, multi-sip and swallow taste method; conditions: for Taste Properties: 500 ppm in citric buffer (pH 3.22), room temperature
Description: The taste properties of a sample of Reb X were studied against Rebaudioside A (Reb A) and Rebaudioside D (Rb D) samples. Rb A was obtained from Cargill (lot #1040) and Reb-D was obtained from PureCircle (lot #11/3/08).
The samples were prepared at 500 ppm for sweetness evaluation by adding moisture compensated mass into a 100 mL sample of carbon-treated water and citric buffer solutions.
Citric buffer was prepared by mixing 1.171 g/L citric acid, 0.275 g/L sodium citrate and 0.185 g/L sodium benzoate with carbon-treated water, with a final pH of 3.22. The mixtures were moderately stirred at room temperature. The Reb X sample was then evaluated against the two control Reb A and Reb D samples in water and citric buffer at room temperature (RT) and at 4° C. in an ice bath by one experienced panelist for any tasting quality determinations using the controlled, multi-sip and swallow taste method shown below:
1. Take first sip (˜1.8 mL) of control and swallow. Wait for 15-25 sec, then take second sip of control and wait for 15-25 sec.
2. Take first sip of the experimental sample, wait for 15-25 sec, then take second sip. Compare to second sip of control.
3. Repeat steps #1 and #2 for the third and fourth sips of the control and experimental samples to confirm the initial finding.
The taste evaluation results of the Reb X samples against the control Reb A and Reb D samples at 500 ppm in citric buffer (CB) at 4° C. and RT are described in Table 4.

[3] = test system: panelists; assay: Sensory properties in acidified water (pH 3.0) at 500 mg/L, 20 panelists; conditions: 10,000 ppm, acidified water pH 3.0, 20 panelists

In the case of `C=C1C[C@@]23CC[C@H]4[C@@](C)(CCC[C@@]4(C)C(=O)O[C@@H]4O[C@H](CO)[C@@H](O)[C@H](O)[C@H]4O)[C@@H]2CC[C@]1(O[C@@H]1O[C@H](CO)[C@@H](O)[C@H](O[C@@H]2O[C@H](CO)[C@@H](O)[C@H](O)[C@H]2O)[C@H]1O[C@@H]1O[C@H](CO)[C@@H](O)[C@H](O)[C@H]1O)C3` [Reb A, Rebaudioside A], the “Astringent taste: Number of panelists detected the attribute” value (“Astringent taste: Number” for short) [1] is reported as 20, the “Bitter taste: Number of panelists detected the attribute” value (“Bitter taste: Number” below) [1] is reported as 20 and the “Licorice taste: Number of panelists detected the attribute” value (shortened to “Licorice taste: Number”) [1] is reported as 20. The “Overall evaluation: Satisfactory (number of panelists of 20)” value (shortened to “Overall evaluation: Satisfactory”) [1] was “(1 of 20)”, the “Quality of sweet taste: Bitter aftertaste (number of panelists of 20)” value [1] was “(20 of 20)” and the “Sweet Aftertaste: Number of panelists detected the attribute” value (“Sweet Aftertaste: Number” for short) [1] was 20. The “Taste Properties” value [2] was “Delayed sweetness onset, significant lingering sweet aftertaste,; also recorded: licorice and bitter off-notes”.
`OC[C@H]1O[C@@](CO)(O[C@H]2O[C@H](CO)[C@@H](O)[C@H](O)[C@H]2O)[C@@H](O)[C@@H]1O` [Sucrose] was tested, and the “Astringent taste: Number” value [3] was 0, the “Bitter taste: Number” value [3] was 0 and the “Licorice taste: Number” value [3] was 0. The “Overall evaluation: Satisfactory” value [3] was “(20 of 20)”, the “Quality of sweet taste: Clean (number of panelists of 20)” value [3] was “Clean (20” and the “Sweet Aftertaste: Number” value [3] was 0.
With `C=C1C[C@@]23CC[C@H]4[C@@](C)(CCC[C@@]4(C)C(=O)O[C@@H]4O[C@H](CO)[C@@H](O)[C@H](O)[C@H]4O[C@@H]4O[C@H](CO)[C@@H](O)[C@H](O)[C@H]4O)[C@@H]2CC[C@]1(O[C@@H]1O[C@H](CO)[C@@H](O)[C@H](O[C@@H]2O[C@H](CO)[C@@H](O)[C@H](O)[C@H]2O)[C@H]1O[C@@H]1O[C@H](CO)[C@@H](O)[C@H](O)[C@H]1O)C3` [Reb D, Rebaudioside D] the “Astringent taste: Number” value [1] was 3, the “Bitter taste: Number” value [1] was 3 and the “Licorice taste: Number” value [1] was 2. The “Overall evaluation: Satisfactory” value [1] was “(11 of 20)”, the “Sweet Aftertaste: Number” value [1] was 5 and the “Taste Properties” value [2] was “Delayed sweetness onset, less sweetness linger as compared to Reb; also recorded: A, no bitter off-notes”. For the same compound, the “Astringency, sweetness intense (depth) and bitterness notes” value ([2]; 500 ppm, citrate buffer system, compared with Reb A) was “did not have the astringency or sweetness intense (depth) and bitterness notes compared to that of the Reb A”.
In the case of `C=C1C[C@@]23CC[C@H]4[C@@](C)(CCC[C@@]4(C)C(=O)O[C@@H]4O[C@H](CO)[C@@H](O)[C@H](O)[C@H]4O)[C@@H]2CC[C@]1(O[C@@H]1O[C@H](CO)[C@@H](O)[C@H](O)[C@H]1O[C@@H]1O[C@H](CO)[C@@H](O)[C@H](O)[C@H]1O)C3` [Stevioside], the “Astringent taste: Number” value [1] is reported as 20, the “Bitter taste: Number” value [1] is reported as 20 and the “Licorice taste: Number” value [1] is reported as 20. For the same compound, the “Overall evaluation: Satisfactory” value [1] was “(0 of 20)”, the “Quality of sweet taste: Bitter aftertaste (number of panelists of 20)” value [1] was “(20 of 20)” and the “Sweet Aftertaste: Number” value [1] was 20.
